Source: PubChem BioAssay AID1963867 (Molecular Pharmacology Branch, DTP, NCI, 2024)

Test system: KRAS-mutant PDC tumor spheroid with HUVEC/MSC, viability
Assay: Anticancer human tumor 327498-153-R-J2-PDC patient-derived uterine carcinosarcoma cell line growth inhibition [KRAS2]
Conditions: for IC50: curve of first compound; for viability, T/C: stronger effect = lower value
Outline: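 Combination screen of spheroid viability in tumor-cell co-cultures with endothelial (HUVEC) and mesenchymal stem cell stroma. Each agent was tested in half-log dilutions, topping at clinical Cmax or at 10 microM without a known Cmax.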

[1] = second compound 0.1 µM, first compound 0.0316 µM
[2] = second compound 0.1 µM, first compound 0.1 µM
[3] = second compound 0.1 µM, first compound 0.316 µM
[4] = second compound 0.1 µM, first compound 1 µM
[5] = second compound 0.1 µM, first compound 3.16 µM
[6] = second compound 0.1 µM, first compound 10 µM
[7] = second compound 0.316 µM, first compound 0.0316 µM
[8] = second compound 0.316 µM, first compound 0.1 µM
[9] = second compound 0.316 µM, first compound 0.316 µM
[10] = second compound 0.316 µM, first compound 1 µM
[11] = second compound 0.316 µM, first compound 3.16 µM
[12] = second compound 0.316 µM, first compound 10 µM
[13] = second compound 1 µM, first compound 0.0316 µM
[14] = second compound 1 µM, first compound 0.1 µM
[15] = second compound 1 µM, first compound 0.316 µM
[16] = second compound 1 µM, first compound 1 µM
[17] = second compound 1 µM, first compound 3.16 µM
[18] = second compound 1 µM, first compound 10 µM
[19] = second compound 3.16 µM, first compound 0.0316 µM
[20] = second compound 3.16 µM, first compound 0.1 µM
[21] = second compound 3.16 µM, first compound 0.316 µM
[22] = second compound 3.16 µM, first compound 1 µM
[23] = second compound 3.16 µM, first compound 3.16 µM
[24] = second compound 3.16 µM, first compound 10 µM
[25] = second compound 10 µM, first compound 0.0316 µM
[26] = second compound 10 µM, first compound 0.1 µM
[27] = second compound 10 µM, first compound 0.316 µM
[28] = second compound 10 µM, first compound 1 µM
[29] = second compound 10 µM, first compound 3.16 µM
[30] = second compound 10 µM, first compound 10 µM
[31] = second compound 0.1 µM, first compound 0.01 µM
[32] = second compound 0.316 µM, first compound 0.01 µM
[33] = second compound 1 µM, first compound 0.01 µM
[34] = second compound 3.16 µM, first compound 0.01 µM
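Further: spheroids exposed to agents for seven days before reading.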
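Wherever viability, T/C is given: 100% = DMSO vehicle wells so lower means fewer viable cells.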

| Compound | IC50 (second compound 0.1 µM) [µM] | IC50 (second compound 0.316 µM) [µM] | IC50 (second compound 1 µM) [µM] | IC50 (second compound 3.16 µM) [µM] | viability, T/C [1] [%] | viability, T/C [2] [%] | viability, T/C [3] [%] | viability, T/C [4] [%] | viability, T/C [7] [%] | viability, T/C [8] [%] | viability, T/C [9] [%] | viability, T/C [10] [%] | viability, T/C [13] [%] | viability, T/C [14] [%] | viability, T/C [15] [%] | viability, T/C [16] [%] | viability, T/C [19] [%] | viability, T/C [20] [%] | viability, T/C [21] [%] | viability, T/C [22] [%] | also measured |
| --- | --- | --- | --- | --- | --- | --- | --- | --- | --- | --- | --- | --- | --- | --- | --- | --- | --- | --- | --- | --- | --- |
| COc1cc2nccc(Oc3ccc(NC(=O)C4(C(=O)Nc5ccc(F)cc5)CC4)cc3)c2cc1OC + C=CC(=O)N1CCN(c2nc(=O)n(-c3c(C)ccnc3C(C)C)c3nc(-c4c(O)cccc4F)c(F)cc23)C(C)C1 | 1.35 | 1.15 | 1.07 | 1.03 | 55.8 | 63.5 | 60.1 | 59.6 | 56.8 | 59.5 | 59.9 | 54.5 | 49.1 | 52.4 | 53.7 | 54 | 51.4 | 49.7 | 54.8 | 50.9 | IC50 (second compound 10 µM): < 0.0316 µM; viability, T/C [5]: 22.6%; viability, T/C [6]: 1.82%; viability, T/C [11]: 16.5%; viability, T/C [12]: 1.34%; viability, T/C [17]: 16%; viability, T/C [18]: 1.1%; viability, T/C [23]: 15.2%; viability, T/C [24]: 0.82%; viability, T/C [25]: 36%; viability, T/C [26]: 37.5%; viability, T/C [27]: 39.9%; viability, T/C [28]: 34%; viability, T/C [29]: 8.7%; viability, T/C [30]: 0.79% |
| CCN1CCN(Cc2ccc(Nc3ncc(F)c(-c4cc(F)c5nc(C)n(C(C)C)c5c4)n3)nc2)CC1 + C=CC(=O)N1CCN(c2nc(OCC3CCCN3C)nc3c2CCN(c2cccc4cccc(C)c24)C3)CC1CC#N | < 0.00316 | < 0.00316 | < 0.00316 | < 0.00316 | 28.2 | 34.2 | 33.7 | 36.4 | 30.1 | 24 | 33.3 | 37.9 | 21.1 | 19.3 | 23.5 | 13.5 | 0.46 | 0.84 | 0.58 | 0.24 | IC50 (second compound 0.0316 µM): < 0.00316 µM; viability, T/C (second compound 0.0316 µM, first compound 0.00316 µM): 55.9%; viability, T/C (second compound 0.0316 µM, first compound 0.01 µM): 46.6%; viability, T/C (second compound 0.0316 µM, first compound 0.0316 µM): 33.4%; viability, T/C (second compound 0.0316 µM, first compound 0.1 µM): 35.2%; viability, T/C (second compound 0.0316 µM, first compound 0.316 µM): 34.5%; viability, T/C (second compound 0.0316 µM, first compound 1 µM): 40.4%; viability, T/C (second compound 0.1 µM, first compound 0.00316 µM): 49.1%; viability, T/C [31]: 35.4%; viability, T/C (second compound 0.316 µM, first compound 0.00316 µM): 40.5%; viability, T/C [32]: 33.1%; viability, T/C (second compound 1 µM, first compound 0.00316 µM): 31.1%; viability, T/C [33]: 23.1%; viability, T/C (second compound 3.16 µM, first compound 0.00316 µM): 1.79%; viability, T/C [34]: 0.22% |
| CC(=O)OC12COC1CC(O)C1(C)C(=O)C(O)C3=C(C)C(OC(=O)C(O)C(NC(=O)OC(C)(C)C)c4ccccc4)CC(O)(C(OC(=O)c4ccccc4)C21)C3(C)C (stereo not given) + COc1cc2nc(C)nc(NC(C)c3cc(N)cc(C(F)(F)F)c3)c2cc1OC1CCOC1 | < 0.01 | < 0.01 | < 0.01 | < 0.01 | 6.47 | 7.11 | 7.15 | 9.33 | 5.72 | 6.66 | 6.34 | 9.71 | 5.99 | 6.32 | 6.76 | 8.86 | 5.59 | 6.6 | 6.36 | 9.6 | IC50 (second compound 10 µM): < 0.01 µM; viability, T/C [31]: 8.2%; viability, T/C [5]: 13.3%; viability, T/C [32]: 7.68%; viability, T/C [11]: 13.2%; viability, T/C [33]: 7.84%; viability, T/C [17]: 11.6%; viability, T/C [34]: 10.3%; viability, T/C [23]: 12.6%; viability, T/C (second compound 10 µM, first compound 0.01 µM): 6.87%; viability, T/C [25]: 6.05%; viability, T/C [26]: 7.37%; viability, T/C [27]: 9.15%; viability, T/C [28]: 13.1%; viability, T/C [29]: 11.8% |
| COc1cc2nccc(Oc3ccc(NC(=O)C4(C(=O)Nc5ccc(F)cc5)CC4)cc3)c2cc1OC + CC1OCC2(CCN(c3cnc(Sc4ccnc(N)c4Cl)c(N)n3)CC2)C1N | 1.31 | 0.659 | < 0.0316 | < 0.0316 | 70.9 | 76.3 | 61.8 | 60.5 | 53.3 | 53.5 | 46.9 | 49.5 | 38.5 | 35.9 | 32.2 | 31.9 | 29.9 | 31.5 | 23.1 | 21.3 | IC50 (second compound 10 µM): < 0.0316 µM; viability, T/C [5]: 21.6%; viability, T/C [6]: 2.02%; viability, T/C [11]: 20.5%; viability, T/C [12]: 1.95%; viability, T/C [17]: 10.8%; viability, T/C [18]: 1.02%; viability, T/C [23]: 14.4%; viability, T/C [24]: 0.53%; viability, T/C [25]: 24.6%; viability, T/C [26]: 21.9%; viability, T/C [27]: 23.6%; viability, T/C [28]: 22.1%; viability, T/C [29]: 9.8%; viability, T/C [30]: 0.48% |
